ChEMBL document CHEMBL3217677, “Synthesis, biological evaluation and X-ray crystallographic studies of imidazo[1,2-a]pyridine-based Mycobacterium tuberculosis glutamine synthetase inhibitors” (Medchemcomm, 2012)

Assay: Inhibition of Mycobacterium tuberculosis glutamine synthetase expressed in Escherichia coli GJ4745 after 1 hr by colorimetry
In the case of CCCCCNc1c(-c2ccc(OCCO)cc2)nc2ccc(Br)cn12, the IC50 is reported as 4.9 µM. CCCCNc1c(-c2ccc(OCCC)cc2)nc2ccc(Br)cn12 gave an IC50 of 15 µM. For Cn1c(N2CCOCC2)nc2c1c(=O)n(Cc1ccc(Cl)c(Cl)c1)c(=O)n2C, the IC50 was 2.5 µM. Work on Brc1ccc2nc(-c3ccccc3)c(NCCc3ccccc3)n2c1 yielded an IC50 greater than 25 µM. Compound Fc1cc(-c2nc3ccc(Br)cn3c2NC2CCCC2)ccc1N1CCOCC1 has an IC50 greater than 25 µM. Compound CCCCNc1c(-c2ccc(OC)c(O)c2)nc2ccc(Br)cn12 has an IC50 of 1.9 µM. With COc1cccc(-c2nc3ccc(Br)cn3c2NCCN2CCOCC2)c1OC the IC50 was greater than 25 µM. Compound CCCCNc1c(-c2ccc(OCCO)cc2)nc2ccc(Br)cn12 has an IC50 of 3 µM. For CCCCNc1c(-c2ccc(N(CCO)CCO)cc2)nc2ccc(Br)cn12, the IC50 was 22 µM. Compound Oc1ccc(-c2nc3ccc(Br)cn3c2NC2CCCCC2)c(Cl)c1 has an IC50 greater than 25 µM. Work on CS(=O)(=O)c1cc(Cl)ccc1-c1nc2ccc(Br)cn2c1NC1CCCC1 yielded an IC50 greater than 25 µM. CC(C)Nc1c(-c2ccc(F)c(F)c2F)nc2ccc(Br)cn12 gave an IC50 greater than 25 µM. With CCCCNc1c(-c2ccc(N(C)CCO)cc2)nc2ccc(Br)cn12 the IC50 was 8.3 µM. With CCCCNc1c(-c2cccc(OCCO)c2)nc2ccc(Br)cn12 the IC50 was 2.2 µM. With CC(C)(C)Nc1c(-c2ccccc2O)nc2ccc(Br)cn12 the IC50 was greater than 25 µM. CC(C)Nc1c(-c2ccc(OCCO)cc2)nc2ccc(Br)cn12 gave an IC50 greater than 25 µM. COc1ccc(Nc2c(-c3ccc(OCc4ccccc4)c(OCc4ccccc4)c3)nc3ccc(Br)cn23)cc1 gave an IC50 greater than 25 µM. Work on CCCCNc1c(-c2ccc(OCCN(C)C)cc2)nc2ccc(Br)cn12 yielded an IC50 of 5.8 µM. Work on CCCCNc1c(-c2ccc(OCC#N)cc2)nc2ccc(Br)cn12 yielded an IC50 of 10 µM. CCCCNc1c(-c2cccc(O)c2)nc2ccc(Br)cn12 showed an IC50 of 1.4 µM. Work on Brc1ccc2nc(-c3ccccc3-c3ccccc3)c(NC3CCCC3)n2c1 yielded an IC50 greater than 25 µM. CC(C)Nc1c(-c2cccc(N3CCOCC3)c2)nc2ccc(Br)cn12 showed an IC50 greater than 25 µM. For CCCCNc1c(-c2ccc(OCC(N)=O)cc2)nc2ccc(Br)cn12, the IC50 was 6.3 µM. For CN(C)c1ccc(-c2nc3ccc(Br)cn3c2NC2CCCC2)cc1, the IC50 was greater than 25 µM. CCCCNc1c(-c2cccc(C(=O)O)c2)nc2ccc(Br)cn12 gave an IC50 of 0.6 µM. CCCNc1c(-c2ccc(OCCO)cc2)nc2ccc(Br)cn12 gave an IC50 of 3.9 µM. Compound CCCCNc1c(-c2ccc(O)c(OC)c2)nc2ccc(Br)cn12 has an IC50 of 1.5 µM. In the case of CCCCNc1c(-c2ccc(OCC(=O)O)cc2)nc2ccc(Br)cn12, the IC50 is reported as 1.6 µM. In the case of OCCOc1ccc(-c2nc3ccc(Br)cn3c2Nc2ccc(F)cc2)cc1, the IC50 is reported as greater than 25 µM. OCCOc1ccc(-c2nc3ccc(Br)cn3c2NC2CCCC2)cc1 gave an IC50 greater than 25 µM. Compound COc1cccc(-c2nc3ccc(Br)cn3c2NC2CCCC2)c1OCc1ccccc1 has an IC50 greater than 25 µM.
